Results taken from patent publication US8541362B2, “Cyclopropyl compounds and compositions for delivering active agents” (Emisphere Technologies, Inc., priority 2005, dated 2013).

How the values were obtained:
Type in all cases: in vivo, rat
Sprague Dawley rats [1] = assay: Oral delivery of insulin in rats with delivery agent: change in blood glucose; settings: 0.25 mg/kg insulin + 100 mg/kg delivery agent
Protocol: (§1) General anesthesia was induced in Sprague Dawley rats (250-350 gram) with 5% isoflurane in an anesthetic chamber, and the anesthesia was maintained with 2% isoflurane in 98% oxygen carrier gas up to the end of the study.
(§2) Jugular vein cannulation was carried out first for blood sampling by creating an incision just above the right clavicle. Using blunt forceps, the connective and adipose tissue were pushed aside and the jugular vein was exposed. The distal end of the exposed jugular vein was ligated, while its proximal end was strained to occlude the blood flow momentarily. A portion of the vessel near to the distal end was nipped, and the silicon catheter was inserted toward the proximal direction. After the catheter was tightened with a silk suture, the skin wound was closed with surgical staples.
(§3) The jejunum was prepared as follows: the proximal jejunum section was identified first. Plasma insulin and blood glucose levels were determined from a blood sample from the […] and used as a baseline.
(§4) The animal's abdominal cavity was opened. After the jejunum was identified, the part of the proximal segment was nipped with surgical scissors. A dosing tubing connected to a 1 ml syringe was introduced into the incised jejunum and carefully dosed. After dosing, the dosing tubing was removed. Then, a 2-cm polyethylene tubing was inserted into the jejunum so that the cut opening was located in the middle of the tubing. Both ends of the tube were tied with suture with the jejunum tissue to secure the jejunum, and, after the wound dried, a vet bond was applied over the top of the wound with a cotton swab. A 2 cm bridge tubing was placed to maintain the intestinal fluid flow intact.
(§5) After dosing and installation of the bridge, the exposed intestines were gently pushed back into place. The exposed wounds were covered with a wet gauge, and then with a paraffin film to prevent dehydration. Thereafter, blood samplings were performed at scheduled time-points.
(§6) Dose: 0.25 mg/kg Insulin, 100 mg/kg Delivery Agent, Concentration: 0.25 mg/ml, 100 mg/ml. Dose volume: 1 ml/kg.
(§7) Human recombinant insulin (ICN Biomedicals, Aurora, Ohio) was dissolved in deionized water (ph˜6.5) to obtain stock insulin solutions having a concentration of 15 mg/ml. 7-cyclopropylheptanoic acid was dissolved in deionized water to obtain a 200 mg/ml delivery agent solution. The free acid form of the delivery agent was converted to the sodium salt by adding one equivalent of sodium hydroxide. Solutions were vortexed, sonicated, and heated. If necessary, additional sodium hydroxide was added in μl quantities to achieve uniform solubility in the delivery agent solutions. Solutions were adjusted to a pH of 7.5-8.5 by the addition of either hydrochloric acid or sodium hydroxide, as appropriate. The insulin stock solution was then added to the delivery agent solutions to obtain an administration solution ultimately having an insulin concentration of 0.25 mg/ml. After solubilization and drug addition, administration solutions were brought to a final volume by the addition of deionized water.

[2] = Oral delivery of insulin in rats with delivery agent: serum insulin by ELISA; settings: procedure of Example 2 (0.25 mg/kg insulin, 100 mg/kg delivery agent)
Protocol: as §1, §2, §3, §4, §5, §6, §7
The insulin assay was performed as follows. Concentrations of insulin were quantified in rat serum using a sandwich-type ELISA kit (Diagnostic Systems Laboratories, Inc., Webster, Tex.). Samples were collected into capiject tubes containing a clot activator (red top, serum separator tubes). Samples were allowed to clot for ˜20 minutes at 4° C. […]

Sprague Dawley rats [3] = assay: Oral delivery of insulin in rats with delivery agent: change in blood glucose; settings: delivery agent: insulin = 200 mg: 0.5 mg per Kg

**Q.** With `O=C(O)CCCCCCC1CC1` [Compound 1, 7-cyclopropylheptanoic acid] as the molecule, how does the “Decrease of blood glucose (%) Average Value” (shortened to “Decrease … (%) Average Value”) (Sprague Dawley rats [1]; time 0 min) read?
**A.** The value was 0%.

**Q.** What about the “Decrease … (%) Average Value” (Sprague Dawley rats [1]; time 5 min) of the same molecule?
**A.** Its value is −1.5%.

**Q.** What about the “Decrease … (%) Average Value” (Sprague Dawley rats [1]; time 10 min) of the same molecule?
**A.** The value was −15.3%.

**Q.** And the “Decrease … (%) Average Value” (Sprague Dawley rats [1]; time 20 min)?
**A.** Its value is −32.9%.

**Q.** And the “Decrease … (%) Average Value” (Sprague Dawley rats [1]; time 40 min)?
**A.** The value was −38.7%.

**Q.** What about the “Decrease … (%) Average Value” (Sprague Dawley rats [1]; time 60 min) of the same molecule?
**A.** Its value is −36.6%.

**Q.** And the “Decrease … (%) Average Value” (Sprague Dawley rats [1]; time 90 min)?
**A.** Its value is −21.8%.

**Q.** With `O=C(O)CCCCCCCCC(=O)NC1CC1` [Compound 9, 10-(cyclopropylamino)-10-oxodecanoic acid] as the molecule, how does the “Max Mean Cmax [uU/mL]” value [2] read?
**A.** Its value is 142.7 ± 62.7 uU/mL.

**Q.** For `COC(=O)CCCCCCC(=O)NC1CC1` [Compound 11], which “Max Mean Cmax [uU/mL]” value [2] is on record?
**A.** The value was 84.93 ± 57.8 uU/mL.

**Q.** For `COC(=O)CCCCCCCCC(=O)NC1CC1` [Compound 12], which “Max Mean Cmax [uU/mL]” value [2] is on record?
**A.** The value was 340.4 ± 191.3 uU/mL.

**Q.** With `O=C(O)CCCCCCC(=O)NCC1CC1` [Compound 13] as the molecule, how does the “% of Glucose Reduction from Control” value (Sprague Dawley rats [3]; time 0 min) read?
**A.** Its value is −0.862%.

**Q.** What about the “% of Glucose Reduction from Control” value (Sprague Dawley rats [3]; time 15 min) of the same molecule?
**A.** Its value is −10.523%.

**Q.** And the “% of Glucose Reduction from Control” value (Sprague Dawley rats [3]; time 30 min)?
**A.** Its value is −20.866%.

**Q.** And the “% of Glucose Reduction from Control” value (Sprague Dawley rats [3]; time 45 min)?
**A.** The value was −28.011%.

**Q.** What about the “% of Glucose Reduction from Control” value (Sprague Dawley rats [3]; time 60 min) of the same molecule?
**A.** Its value is −32.952%.

**Q.** Which “Max Mean Cmax [uU/mL]” value [2] does the source give for `COC(=O)CCCCCCC(=O)NCC1CC1` [Compound 14] here?
**A.** The value was 71.3 ± 35.2 uU/mL.

**Q.** With `O=C(O)CCCCCCCCC(=O)NCC1CC1` [Compound 15] as the molecule, how does the “Max Mean Cmax [uU/mL]” value [2] read?
**A.** The value was 71.2 ± 33.7 uU/mL.
